Where a SMILES comes first, the peptide text is derived from it. Bridges are numbered along the chain shown (N, C = ends).
Legend:
[1] = Measurement of emulsion activity (light transmittance); assay type: physicochemical; conditions: emulsion containing the labelled fat or oil; Fig. 6
Method: After heating at 40 - 45°C for 5 minutes, the mixture was stirred with a Polytron homogenizer at a maximum speed for 1 minute to obtain an emulsion (which contained 5 wt% of the oil).
Each of the emulsions was put into a test tube, which was readjusted to a vertical position and left to stand at room temperature. At given time intervals, 0.2-ml portions of each emulsion were collected from the bottom of the test tube and mixed with 3.8 ml of an aqueous solution of 0.1% sodium dodecylsulfate. The light transmittance of each sample was measured under various conditions and the results of measurements are shown in Figs. 3 - 6.

[2] = Absorption of vitamin A through lymphatic vessels after injection of emulsions into the loop of small intestines; assay type: in vivo, Wistar male rats
Method: Wistar male rats each weighing about 400 g were starved for 24 hours. The starved rats were anesthetized by intraperitoneal administration of pentobarbital. Thereafter, the rats were incised in the belly and silicon cannulas were inserted into the area between the pylorus of the stomach and the duodenum and into the ileocecal area. Through the upper cannula, liquid drugs (5 ml) composed of the emulsions prepared in Example 1 were injected into the loop of small intestines (duodenum, jejunum and ileum) and the cannula was closed with a clamp.
Blood and lymph fluid were collected from the hip artery and the lymph in the thoracic duct at given time intervals and the concentrations of vitamin A in the two fluids were measured. A similar experiment was conducted on biliary fistula rats from which bile was excreted through a cannula inserted into the bile duct, and comparison was made with intact rats which had not received such a treatment.
[…] After extraction with cyclohexane, the concentration of vitamin A in each sample was measured by fluorometry at 480 nm with fluorescence excited at 340 nm. After being absorbed by the small intestines, vitamin A forms chylomicron, the greater part of which is known to be transferred into the lymph system, not the blood system.

[3] = Concentration of eel calcitonin in blood after injection into the duodenum (Example 11); assay type: in vivo, Wistar male rats; conditions: male, Wistar, rat, 50 ug per rat, 100 µg/ml, 0.5 ml into the duodenum
Method: Wistar male rats each weighing ca. 200 g were cannulated at the duodenum and tail vein under anesthetization with either and restrained in Bollman cages. […] A control group was injected with 0.5 ml of PBS(-), and a calcitonin control group was injected with 0.5 ml of a solution of calcitonin in phosphate buffer saline (100 µg/ml). Blood samples were taken from these control-groups according to the same schedule as in the case of the emulsion treated group. Thirty minutes before the administration of calciton, calcium chloride in physiological saline was administered intraperitoneally in an amount of 60 mg/kg in order to stimulate the secretion of endogenous calcitonin. Each rat group consisted of 6 animals.

[4] = Oral absorption of lipid-soluble drugs reduced to microspheres with MFGM; conditions: drug reduced to microspheres with MFGM
[5] = rat, in vivo
Method: Wistar male rats each weighing ca. 300 g were starved overnight. Thereafter, their skin above the right common carotid artery was incised and a cannula was inserted into the artery. […] The so prepared emulsion was administered orally to the rats. […] The dose of hydrocortisone was 1.5 mg/kg. After hydrocortisone administration, blood samples were taken at regular time intervals. Feces and urine were collected and the rats were killed 49 hours after the administration. The digestive tracts, their contents and various organs were separated and the content of hydrocortisone in each site was determined by radioactivity measurement.

CCCCCCCC/C=C\CCCCCCCC(=O)O [oleic acid]
increase in emulsion activity [1]: highest increase | concentration of vitamin A in lymph (ranking) ([2]; intact rats, emulsion in labelled fat or oil, content 5%, vitamin A 2.5 mg per rat, Fig. 9): lowest level

vitamin A
concentration of vitamin A in lymph ([2]; rat, in vivo): dropped to very low levels | vitamin A in the blood ([2]; rat, in vivo): hardly detectable

CCCCCCCC/C=C\CCCCCCCC(=O)OCC(O)CO (stereo not drawn) [monoolein]
increase in emulsion activity [1]: least increase

CC(C)C[C@H](NC(=O)[C@H](CCCCN)NC(=O)CNC(=O)[C@H](CC(C)C)NC(=O)[C@@H](NC(=O)[C@@H]1CSSC[C@H](N)C(=O)N[C@@H](CO)C(=O)N[C@@H](CC(N)=O)C(=O)N[C@@H](CC(C)C)C(=O)N[C@@H](CO)C(=O)N[C@@H]([C@@H](C)O)C(=O)N1)C(C)C)C(=O)N[C@@H](CO)C(=O)N[C@@H](CCC(N)=O)C(=O)N[C@@H](CCC(=O)O)C(=O)N[C@@H](CC(C)C)C(=O)N[C@@H](Cc1c[nH]cn1)C(=O)N[C@@H](CCCCN)C(=O)N[C@@H](CC(C)C)C(=O)N[C@@H](CCC(N)=O)C(=O)N[C@H](C(=O)N[C@@H](Cc1ccc(O)cc1)C(=O)N1CCC[C@H]1C(=O)N[C@@H](CCCNC(=N)N)C(=O)N[C@H](C(=O)N[C@@H](CC(=O)O)C(=O)N[C@H](C(=O)NCC(=O)N[C@@H](C)C(=O)NCC(=O)N[C@H](C(=O)N1CCC[C@H]1C(N)=O)[C@@H](C)O)C(C)C)[C@@H](C)O)[C@@H](C)O [Calcitonin treated] (H-CSNLSTCVLGKLSQELHKLQTYPRTDVGAGTP-NH2; disulfide 1-7 (inferred); N-terminus and C-terminus assumed)
level at 0 h [3]; 0: 0.1 ± 0.08 ng/mL | level at 0.5 h ([3]; 30 min.): 0.7 ± 0.09 ng/mL | level at 1 h ([3]; 60 min.): 0.7 ± 0.22 ng/mL | level at […] ([3]; 90 min.): 0.8 ± 0.31 ng/mL | level at 2 h ([3]; 120 min.): 0.6 ± 0.4 ng/mL

COC1=C(OC)C(=O)C(CCCCCCCCCCO)=C(C)C1=O [avan]
ability of MFGM to promote the absorption [4]: also observed

Tween 80
residual in the body [5]: 12.41 % of dose

Reference: EP0385445A2, “Method of forming a suspension and composition formed by said method” (Horikoshi, Isamu, priority 1989, dated 1990)
